Assay results reported in article PMC5578202, “Bioaccessibility, Intestinal Permeability and Plasma Stability of Isorhamnetin Glycosides from Opuntia ficus-indica (L.)” (International Journal of Molecular Sciences, 2017).
Where two headings read alike, the source gives them in different places.

Tests used:
[1] = Simulated in vitro digestion (oral, gastric, intestinal): recovery percentage / bioaccessibility; format: in vitro ADME; details: human-simulated digestion
Method: The simulated in vitro digestion model was performed based on the methodology described by Garrett et al., with some modifications. Isorhamnetin aglycones and O. ficus-indica extract were subjected to digestion in triplicate. A three-step procedure was applied to simulate the digestive processes in the mouth, stomach, and small intestine. The digestion started with an amount of extract that contained an equivalent of 10 mg of isorhamnetin (60 mg) or 10 mg of isorhamnetin standard. An α-amylase solution (75 Units/mL) was added to 20 mL of solution, adjusted to pH 6.9, which was incubated for 10 min. This mixture was shaken using a VWR® Incubating orbital shaker (Thorofare, NJ, USA) for 10 min at 37 °C and 55 rpm. The gastric digestion started by adjusting the pH to 2 with 1 M HCl and, after, 2 mL of porcine-pepsin solution was added (40 mg/mL in 0.1 M HCl). This mixture was shaken in an incubator for 1 h at 37 °C and 95 rpm. For the intestinal digestion, the solution was previously adjusted to pH 5.3 with 0.9 M NaHCO3 and then a mixture of bile salts and pancreatin (6 mL containing porcine-pancreatin (2 mg/mL), and bile salts (12 mg/mL) dissolved in a NaHCO3 solution (100 mM), were added. Concentrations of pancreatin and bile extract in the final solution were 0.4 and 2.4 mg/mL, respectively. Then, the solution was adjusted to pH 7.5 by adding 1N NaOH. The mixture was shaken in an incubator for 2 h at 37 °C and 95 rpm. The enzyme reaction was inactivated by placing the sample in a hot water bath (80 °C for 2 min). At the end of the process, the digested samples were centrifuged at 13,000× g and 4 °C for 5 min (Thermo Scientific SL 16R centrifuge, Osterode, Germany). The resulting supernatant, which was considered the bioaccessible or absorbable fraction, was recovered. The recovery percentage of each compound was calculated based on the concentration in the supernatant recovered after each phase (oral, gastric, and intestinal) of the in vitro digestion. This fraction was also tested for permeability and potential bioavailability of the isorhamnetin glycosides present in the O. ficus-indica extract.

[2] = tested on: Caco-2/HT-29 cell monolayer; test: Permeability across Caco-2/HT-29 (75:25) co-culture monolayer; format: in vitro ADME, human; details: for Efflux ratio [Papp(BL-AP)/Papp(AP-BL)]: Caco-2/HT-29 (Figure 2b); for Apparent permeability coefficient apical to basolateral, Papp(AP-BL): Caco-2/HT-29 co-culture, digested samples
Method: (§1) Caco-2 and HT-29 cell lines were obtained from ATCC (American Tissue Culture Collection, Rockville, MD, USA). Cells were cultured in DMEM-F12 supplemented with 10% fetal bovine serum and were maintained at 37 °C in 5% CO2. Before the start of the permeability experiments, the cytotoxicity of isorhamnetin and the O. ficus-indica extract on Caco-2/HT-29 (75:25) co-culture were tested to ensure that the viability of the cells was over 90%. Permeability experiments were performed according to Xie et al. and Hubatsch et al. with slight modifications. Caco-2 and HT-29 co-culture cell monolayer (75:25) were seeded on 6-well transwell plates, with inserts having a polycarbonate membrane with a surface area of 4.71 cm^2 and a pore diameter of 0.4 µm (Costar, Corning, NY, USA) at a final seeding density of 1 × 10^6 cells/insert, cultured for 21 days. Caco-2 cell monolayers were washed with warm HBSS medium (pH 7.4) and then digested samples of isorhamnetin aglycone or O. ficus-indica extract were added to the apical side (AP: 1.5 mL), whereas the receiving compartment or basolateral side (BL: 2.5 mL) contained the corresponding volume of HBSS. Plates with transwell inserts were incubated at 37 °C in an orbital shaking incubator at 100 rpm. Aliquots of 1 mL were withdrawn from both compartments at 15, 30, 60 and 120 min, and fresh HBSS was added to replace the withdrawn volume. Samples were immediately frozen and preserved at −20 °C until HPLC analysis. All experiments were performed in triplicate.
(§2) The apparent permeability coefficient (Papp) was calculated from the cumulative amount permeated versus the time profile according the following Equation (1): Papp = (dQ/dt) × (V/A × C0) (1) where dQ/dt is the change in drug concentration in the receiver solution (µM/s), V represents the volume of the solution in the receiving compartment (mL), A denotes the membrane surface area (cm^2), and C0 is the initial concentration in the donor compartment (µM).
(§3) The integrity of the monolayers was measured at the beginning and the end of the experiment using the paracellular permeability of lucifer yellow (LY). Fluorescence was measured at 530 nm (emission) and 485 nm (excitation) using a microplate reader (Synergy HT, BioTek, Winooski, VM). The data from membranes displaying an LY apparent permeability coefficient (Papp) > 1 × 10^−6 cm/s were excluded.

[3] = cited from earlier work
Caco-2 cell monolayer = details: cited from earlier work
[4] = cited from earlier work; for Recovery after intestinal digestion: ref Ydjedd et al. [40]
[5] = Plasma stability / pharmacokinetics after intravenous dose in rats; parameters: species or system rat; details: male, Wistar, in vivo, intravenous dose 2 mg/kg
Method: Twenty-seven male Wistar rats, weighing approximately 200 g (eight weeks old), were divided in nine groups of three animals each. One group was taken as a control and received only a saline solution through the caudal vein. Four groups received an intravenous dose (2 mg/kg) of the O. ficus-indica extract and the last four groups received the commercial isorhamnetin standard. The dosage was determined based on results previously reported by Antunes-Ricardo et al.. Animals were anaesthetized with ketamine/xilazyne (60 mg/kg; 10 mg/kg), and then blood was extracted by intracardiac puncture at different sampling times (0.25, 0.5, 1 and 1.5 h). This procedure was randomized to avoid any bias results. After blood extraction, the animals were sacrificed by cervical dislocation. Plasma was obtained as previously described (see Section 4.6) and the samples were stored at −20 °C until analysis.
Plasma samples were spiked with 25 µL of quercetin (30 µg/mL) as an internal standard. Then, plasma samples were submitted to an acid hydrolysis with 2 M HCl for 180 min at 80 °C. Then, samples were extracted with 100% methanol (10:1, v/v), centrifuged, and the resulting supernatants were quantified by HPLC-PDA. The area under the concentration-time curve (AUC0−1.5 h) was calculated based on the linear trapezoidal method. The elimination half-life (t1/2) was determined by linear regression of the terminal portion of the plasma concentration-time data. The plasma clearance (CLplasma) was calculated by multiplying the volume of distribution, Vd, by the elimination constant, Kel, according to the following Equation (3): CLplasma: Vd × Kel (3)

[6] = Permeability across Caco-2/HT-29 (75:25) co-culture monolayer; format: in vitro ADME, human; details: human, pH 7.4
Method: as §1, §2, §3

[7] = parameters: method as in Duan et al. [24]; details: ref Duan et al. [24]; cited from earlier work
[8] = intestinal phase, pH 7.5, pancreatin and bile salts
[9] = Caco-2 monolayer, ref Xie et al. [47]

isorhamnetin-3-O-glucosyl-rhamnosyl-rhamnoside [IGRR]
Recovery percentage after gastric digestion phase ([1]; gastric phase, pH 2, pepsin): 96.0 ± 4.4 ^A,a %
Recovery percentage after intestinal digestion phase [1, 8]: 79.5 ± 1.8 ^A,b %
Recovery percentage after oral digestion phase ([1]; oral phase, pH 6.9, α-amylase): 99.1 ± 3.8 ^A,a %
Efflux ratio [Papp(BL-AP)/Papp(AP-BL)] [2]: 5.9
Apparent permeability coefficient apical to basolateral, Papp(AP-BL) [2]: 1.03 ± 0.04 × 10^−6 cm/s

O=c1c(O[C@@H]2O[C@H](CO)[C@H](O)[C@H](O)[C@H]2O)c(-c2ccc(O)c(O)c2)oc2cc(O)cc(O)c12 [Quercetin-3-galactoside]
Concentration in plasma ([3]; after ingestion of cranberry juice, ref Wang et al. [55]): 10 to 15 ng/mL
Efflux ratio compared with quercetin-3-glucoside (Caco-2 cell monolayer; ref Duan et al. [24]): higher efflux ratio

O=c1c(O)c(-c2ccc(O)c(O)c2)oc2cc(O)cc(O)c12 [quercetin as aglycone, quercetin]
AUC0–24 h ([3]; in humans, ref [54]): 2500 ± 2200 ng·h/mL
AUC0–1440 min of quercetin ([3]; ref Petersen et al. [56]): 62 ± 12 µmol·min/L

isorhamnetin-3-O-glucosyl-pentoside [IGP]
Recovery percentage after gastric digestion phase ([1]; gastric phase, pH 2, pepsin): 93.5 ± 3.3 ^A,a %
Recovery percentage after intestinal digestion phase [1, 8]: 73.3 ± 3.5 ^A,b %
Recovery percentage after oral digestion phase ([1]; oral phase, pH 6.9, α-amylase): 96.6 ± 4.7 ^A,a %
Efflux ratio [Papp(BL-AP)/Papp(AP-BL)] [2]: 3.0

C[C@@H]1O[C@@H](Oc2c(-c3cc(O)c(O)c(O)c3)oc3cc(O)cc(O)c3c2=O)[C@H](O)[C@H](O)[C@H]1O [myricetin-rhamnoside]
Recovery after a simulated digestion process ([4]; ref Ortega et al. [39]): 51.5%
Recovery after intestinal digestion [4]: 40.2%

COc1cc(-c2oc3cc(O)cc(O)c3c(=O)c2O)ccc1O [I, isorhamnetin]
AUC(0-t) ([5]; rat plasma, isorhamnetin after acid hydrolysis, read-out: AUC0–1.5 h of isorhamnetin): 104 ± 4.89 µM·h
half-life ([5]; rat plasma, read-out: Elimination half-life t1/2 (converted)): 38.4 min
clearance ([5]; rat, read-out: CL plasma): 7.44 ± 1.21 mL/min
recovery at 2 h, 0.33 mg/mL ([1]; intestinal phase, pH 7.5, pancreatin and bile salts, read-out: Recovery percentage after intestinal digestion phase): 74.3 ± 7.4%
recovery at 10 min, 0.5 mg/mL ([1]; oral phase, pH 6.9, α-amylase, read-out: Recovery percentage after oral digestion phase): 35 ± 2.4%
recovery at 1 h ([1]; simulated in vitro digestion, gastric phase, pH 2, pepsin, read-out: Recovery percentage after gastric digestion phase): 49 ± 3.4%
Papp(AP-BL) (Caco-2 cell monolayer; Caco-2 cells, ref Lan et al. [35]): 2.28 ± 0.09 × 10^−6 cm/s
Papp (Caco-2 cell monolayer; Caco-2 monolayer, tested alone, ref Xie et al. [47]): 1.61 ×10⁻⁶ cm/s
Increase of Papp in combination with kaempferol (Caco-2 cell monolayer; [9]): 1.33 fold
Increase of Papp in combination with quercetin (Caco-2 cell monolayer; [9]): 2.38 fold
efflux ratio at 120 min ([6]; Caco-2/HT-29 (Figure 2b), read-out: Efflux ratio [Papp(BL-AP)/Papp(AP-BL)]): 0.6
Papp A→B at 120 min ([6]; Caco-2/HT-29 co-culture, digested samples, read-out: Apparent permeability coefficient apical to basolateral, Papp(AP-BL)): 4.74 ± 0.02 ×10⁻⁶ cm/s
Papp basolateral to apical relative to Papp apical to basolateral ([2]; Caco-2/HT-29): two-fold lower
Bioaccessibility after a simulated digestion ([4]; from almond skins, ref [19]): 25.1 ± 7.0%
pKa [7]: 6.3

isorhamnetin-3-O-glucosyl-rhamnosyl-pentoside [IGRP]
Recovery percentage after gastric digestion phase ([1]; gastric phase, pH 2, pepsin): 96.2 ± 0.4 ^A,a %
Recovery percentage after intestinal digestion phase [1, 8]: 80.3 ± 1.9 ^A,b %
Recovery percentage after oral digestion phase ([1]; oral phase, pH 6.9, α-amylase): 93.8 ± 5.2 ^A,a %
Efflux ratio [Papp(BL-AP)/Papp(AP-BL)] [2]: 5.2
Apparent permeability coefficient apical to basolateral, Papp(AP-BL) [2]: 1.28 ± 0.02 × 10^−6 cm/s

O=c1cc(-c2ccccc2)oc2cc(O)cc(O)c12 [chrysin]
Permeability basolateral to apical relative to apical to basolateral (Caco-2 cell monolayer; ref [36]): two-fold higher

isorhamnetin-3-O-glucosyl-rhamnoside [IGR]
Recovery percentage after gastric digestion phase ([1]; gastric phase, pH 2, pepsin): 96.8 ± 0.9 ^A,a %
Recovery percentage after intestinal digestion phase [1, 8]: 81.0 ± 4.6 ^A,b %
Recovery percentage after oral digestion phase ([1]; oral phase, pH 6.9, α-amylase): 99.6 ± 3.8 ^A,a %
Papp(AP-BL) (Caco-2 cell monolayer; Caco-2 monolayers, ref Tian et al. [23]): 2.9e-07 cm/s
Efflux ratio [Papp(BL-AP)/Papp(AP-BL)] [2]: 3.1
Apparent permeability coefficient apical to basolateral, Papp(AP-BL) [2]: 1.72 ± 0.01 × 10^−6 cm/s

C[C@@H]1O[C@@H](Oc2c(-c3ccc(O)c(O)c3)oc3cc(O)cc(O)c3c2=O)[C@H](O)[C@H](O)[C@H]1O [quercetin rhamnoside]
Recovery after intestinal digestion [4]: 47.9%

COc1ccc([C@@H]2CC(=O)c3c(O)cc(O[C@@H]4O[C@H](CO[C@@H]5O[C@@H](C)[C@H](O)[C@@H](O)[C@H]5O)[C@@H](O)[C@H](O)[C@H]4O)cc3O2)cc1O [hesperetin-7-O-rutinoside]
tmax ([3]; after oral consumption, ref [32]): 288 ± 132 min

COc1ccc([C@@H]2CC(=O)c3c(O)cc(O[C@@H]4O[C@H](CO)[C@@H](O)[C@H](O)[C@H]4O)cc3O2)cc1O [hesperetin-7-O-glucoside]
Bioavailability higher than hesperetin-7-O-rutinoside ([3]; human, in vivo): 76%
tmax ([3]; in vivo, po): 30 ± 6 min
Improvement of bioavailability on removing the rhamnose moiety from hesperetin-7-glucosyl-rhamnoside ([3]; in vivo): two-fold

quercetin-3-glucosyl-rhamnoside
Decrease in levels after intestinal digestion phase compared with gastric step ([4]; ref Tenore et al. [37]): 18.6%
